Measurements from US7718641B2, “Pyrrolo [3,4-H] isoquinoline compounds and methods for modulating gated ion channels” (Aros Pharma ApS, priority 2005, dated 2010).

Target: T1, heteromeric hASIC1a+3 (Homo sapiens, UniProt P78348+Q9UHC3)
T1 sequence (P78348 1-528): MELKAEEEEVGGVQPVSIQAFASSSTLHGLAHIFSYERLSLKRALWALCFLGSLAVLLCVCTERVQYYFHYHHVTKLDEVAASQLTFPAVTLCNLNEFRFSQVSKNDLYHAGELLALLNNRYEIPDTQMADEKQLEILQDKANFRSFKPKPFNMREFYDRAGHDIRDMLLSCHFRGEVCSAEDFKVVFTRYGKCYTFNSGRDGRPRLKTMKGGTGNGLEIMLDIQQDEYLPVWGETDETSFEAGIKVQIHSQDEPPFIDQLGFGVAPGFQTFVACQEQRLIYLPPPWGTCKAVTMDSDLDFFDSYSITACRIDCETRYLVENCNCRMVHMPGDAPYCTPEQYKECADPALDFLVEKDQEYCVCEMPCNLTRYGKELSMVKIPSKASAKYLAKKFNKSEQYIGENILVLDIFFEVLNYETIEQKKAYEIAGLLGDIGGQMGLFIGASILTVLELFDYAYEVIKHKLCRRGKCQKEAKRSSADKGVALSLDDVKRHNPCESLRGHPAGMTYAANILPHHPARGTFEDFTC
T1 sequence (Q9UHC3 1-531): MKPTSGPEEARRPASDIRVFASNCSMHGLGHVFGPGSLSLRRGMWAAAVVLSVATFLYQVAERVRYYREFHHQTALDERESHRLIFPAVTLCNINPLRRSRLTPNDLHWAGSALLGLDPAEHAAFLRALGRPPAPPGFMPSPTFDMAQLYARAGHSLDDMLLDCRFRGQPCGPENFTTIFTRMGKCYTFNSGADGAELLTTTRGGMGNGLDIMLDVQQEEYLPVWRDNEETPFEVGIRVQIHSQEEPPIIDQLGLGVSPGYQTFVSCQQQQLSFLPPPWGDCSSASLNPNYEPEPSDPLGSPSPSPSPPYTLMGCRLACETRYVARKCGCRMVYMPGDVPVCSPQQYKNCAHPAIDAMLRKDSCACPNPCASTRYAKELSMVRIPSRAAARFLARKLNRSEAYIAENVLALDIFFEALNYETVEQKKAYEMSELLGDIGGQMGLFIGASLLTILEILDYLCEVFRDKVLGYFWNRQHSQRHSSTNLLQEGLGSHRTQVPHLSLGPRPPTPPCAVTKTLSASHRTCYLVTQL
Assay: Two-electrode voltage clamp in Xenopus laevis oocytes expressing heteromeric hASIC1a+3
Type: cell-based
Design: expressed in transfected cells
Details: 30 μM, OpusExpress
Method: Two-electrode voltage clamp electrophysiological assays in Xenopus laevis oocytes expressing gated ion channels are performed as follows:
Oocytes are surgically removed from adult Xenopus laevis and treated for 2 h at room temperature with 1 mg/ml type I collagenase (Sigma) in Barth's solution under mild agitation. Selected oocytes at stage IV-V are defolliculated manually before nuclear microinjection of 2.5-5 ng of a suitable expression vector, such as pcDNA3, comprising the nucleotide sequence encoding a gated ion channel subunit protein. In such an experiment, the oocytes express homomultimeric proton-gated ion channels on their surface. In an alternate experiment, one, two, three or more vectors comprising the coding sequences for distinct gated ion channel subunits are co-injected in the oocyte nuclei. […] After 2-4 days of expression at 19° C. in Barth's solution containing […] gentamicin and 1.8 mM CaCl2, gated ion channels are activated by applying an acidic solution (pH <7) and currents are recorded in a two electrode voltage-clamp configuration, using an OC-725B amplifier (Warner Instruments). Currents are acquired and digitized at 500 Hz on an Apple Imac G3 computer with an A/D NB-MIO-16XL interface (National Instruments) and recorded traces are post-filtered at 100 Hz in Axograph (Axon Instruments) (Neher, E. and Sakmann, B. (1976) Nature 260:799-802). […]

For `COc1ccc(F)cc1-c1cc2c(c3c1CCN(C)C3)NC(=O)/C2=N/O` [Compound A, 5-(5-fluoro-2-methoxyphenyl)-6,7,8,9-tetrahydro-3-(hydroxyimino)-8-methyl-1H-pyrrolo[3,2-h]isoquinoline-2(3H)-one], the “effect on inward currents elicited by pH 6.5, heteromeric hASIC1a+3” value was “effectively modulates the activity”.
